Measurements taken from the NIST ThermoML archive (doi:10.1016/j.jct.2016.05.007).
Several values for one entry are separate records, joined by “and”; a condition that tells them apart may be missing. Equal entries are not always repeated. Numbers after ± are expanded uncertainties.

How the values were obtained:
[1] = molar enthalpy of vaporization or sublimation; conditions: 298.15 K; Crystal 2; Static calorimetry
[2] = Molar enthalpy of transition or fusion; conditions: DSC
[3] = for Triple point temperature: DSC

CC(C)(C)c1ccc2c(c1)Cc1cc(C(C)(C)C)ccc1-2 [2,7-di-tert-butylfluorene]
Conditions	molar enthalpy [kcal/mol]
[1]	28.66 ± 0.239

Conditions	Molar enthalpy of transition or fusion, [2] [kcal/mol]	Triple point temperature, [3] [K]
Crystal 1	3.73 ± 0.0956	395.9 ± 0.8
Crystal 2	2.39 ± 0.0645	367 ± 0.8

[3]
Conditions	vapor or sublimation pressure
349.14 K, Crystal 2, Calculated from knudsen effusion weight loss	0.000106 ± 2e-05 kPa and 0.000105 ± 2e-05 kPa
351.14 K, Crystal 2, Calculated from knudsen effusion weight loss	0.000136 ± 2.1e-05 kPa and 0.000135 ± 2.1e-05 kPa and 0.000132 ± 2.1e-05 kPa
353.3 K, Crystal 2, Calculated from knudsen effusion weight loss	0.000169 ± 2.1e-05 kPa and 0.000171 ± 2.1e-05 kPa
355.28 K, Crystal 2, Calculated from knudsen effusion weight loss	0.000213 ± 2.1e-05 kPa and 0.000215 ± 2.1e-05 kPa and 0.000217 ± 2.1e-05 kPa
357.2 K, Crystal 2, Calculated from knudsen effusion weight loss	0.000271 ± 2.2e-05 kPa and 0.000267 ± 2.2e-05 kPa and 0.000261 ± 2.2e-05 kPa
359.19 K, Crystal 2, Calculated from knudsen effusion weight loss	0.000321 ± 2.3e-05 kPa and 0.000336 ± 2.3e-05 kPa and 0.00033 ± 2.3e-05 kPa
361.14 K, Crystal 2, Calculated from knudsen effusion weight loss	0.000408 ± 2.5e-05 kPa and 0.000409 ± 2.5e-05 kPa
363.27 K, Crystal 2, Calculated from knudsen effusion weight loss	0.000509 ± 2.7e-05 kPa and 0.000507 ± 2.7e-05 kPa and 0.000514 ± 2.7e-05 kPa
368.2 K, Crystal 1, Calculated from knudsen effusion weight loss	0.000805 ± 3.5e-05 kPa and 0.000816 ± 3.5e-05 kPa and 0.000828 ± 3.5e-05 kPa
368.55 K, Crystal 1, Closed cell (Static) method	0.000873 ± 2.4e-05 kPa
369.13 K, Crystal 1, Calculated from knudsen effusion weight loss	0.000886 ± 3.7e-05 kPa and 0.000888 ± 3.7e-05 kPa and 0.000889 ± 3.7e-05 kPa
370.26 K, Crystal 1, Calculated from knudsen effusion weight loss	0.000975 ± 4e-05 kPa and 0.000979 ± 4e-05 kPa
370.54 K, Crystal 1, Closed cell (Static) method	0.001055 ± 2.5e-05 kPa
371.21 K, Crystal 1, Calculated from knudsen effusion weight loss	0.001079 ± 8.5e-05 kPa and 0.001082 ± 8.5e-05 kPa and 0.00107 ± 8.4e-05 kPa
372.21 K, Crystal 1, Calculated from knudsen effusion weight loss	0.00118 ± 9.5e-05 kPa and 0.001178 ± 9.5e-05 kPa
372.5 K, Crystal 1, Closed cell (Static) method	0.001246 ± 2.6e-05 kPa
374.5 K, Crystal 1, Closed cell (Static) method	0.001492 ± 2.7e-05 kPa
376.45 K, Crystal 1, Closed cell (Static) method	0.001778 ± 2.9e-05 kPa
378.41 K, Crystal 1, Closed cell (Static) method	0.002106 ± 3.1e-05 kPa
380.4 K, Crystal 1, Closed cell (Static) method	0.002524 ± 3.3e-05 kPa
382.38 K, Crystal 1, Closed cell (Static) method	0.002965 ± 3.5e-05 kPa
384.34 K, Crystal 1, Closed cell (Static) method	0.003492 ± 3.7e-05 kPa
386.3 K, Crystal 1, Closed cell (Static) method	0.004126 ± 4.1e-05 kPa
388.27 K, Crystal 1, Closed cell (Static) method	0.004862 ± 4.4e-05 kPa
390.24 K, Crystal 1, Closed cell (Static) method	0.00567 ± 4.8e-05 kPa

[3], Closed cell (Static) method, Liquid
Conditions	vapor or sublimation pressure [kPa]
384.34 K	0.003946 ± 4e-05
386.32 K	0.004548 ± 4.3e-05
388.28 K	0.005217 ± 4.6e-05
390.28 K	0.005976 ± 5e-05
392.22 K	0.006859 ± 5.4e-05
394.2 K	0.007843 ± 5.9e-05
396.17 K	0.008987 ± 6.5e-05
398.15 K	0.01026 ± 7.1e-05
400.05 K	0.01164 ± 7.8e-05
402.07 K	0.01327 ± 8.6e-05
404.04 K	0.01508 ± 9.5e-05
